Experimental data taken from patent US8791131B2, “Imidazo[1,5]naphthyridine compounds, their pharmaceutical use and compositions” (Pfizer Inc., priority 2008, dated 2014).
Read-outs that look alike come from different tables or passages of the source.

What was measured:
PI3-Kα = PI3-Kα (Mus musculus (Mouse), UniProt P42337); assay: PI3-Kα biochemical assay (in vitro kinase assay, fluorescence polarization); conditions: read-out: PI3Ka Ki;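 also: Insect-cell-expressed mouse p110/p85 complex converting PI(4,5)P2, product PI(3,4,5)P3 detected by displacing TAMRA-tagged PI(3,4,5)P3 from Grip1 PH domain, lower polarization means more product, room temperature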
Sequence of PI3-Kα (P42337 whole entry, the tested form may be a part): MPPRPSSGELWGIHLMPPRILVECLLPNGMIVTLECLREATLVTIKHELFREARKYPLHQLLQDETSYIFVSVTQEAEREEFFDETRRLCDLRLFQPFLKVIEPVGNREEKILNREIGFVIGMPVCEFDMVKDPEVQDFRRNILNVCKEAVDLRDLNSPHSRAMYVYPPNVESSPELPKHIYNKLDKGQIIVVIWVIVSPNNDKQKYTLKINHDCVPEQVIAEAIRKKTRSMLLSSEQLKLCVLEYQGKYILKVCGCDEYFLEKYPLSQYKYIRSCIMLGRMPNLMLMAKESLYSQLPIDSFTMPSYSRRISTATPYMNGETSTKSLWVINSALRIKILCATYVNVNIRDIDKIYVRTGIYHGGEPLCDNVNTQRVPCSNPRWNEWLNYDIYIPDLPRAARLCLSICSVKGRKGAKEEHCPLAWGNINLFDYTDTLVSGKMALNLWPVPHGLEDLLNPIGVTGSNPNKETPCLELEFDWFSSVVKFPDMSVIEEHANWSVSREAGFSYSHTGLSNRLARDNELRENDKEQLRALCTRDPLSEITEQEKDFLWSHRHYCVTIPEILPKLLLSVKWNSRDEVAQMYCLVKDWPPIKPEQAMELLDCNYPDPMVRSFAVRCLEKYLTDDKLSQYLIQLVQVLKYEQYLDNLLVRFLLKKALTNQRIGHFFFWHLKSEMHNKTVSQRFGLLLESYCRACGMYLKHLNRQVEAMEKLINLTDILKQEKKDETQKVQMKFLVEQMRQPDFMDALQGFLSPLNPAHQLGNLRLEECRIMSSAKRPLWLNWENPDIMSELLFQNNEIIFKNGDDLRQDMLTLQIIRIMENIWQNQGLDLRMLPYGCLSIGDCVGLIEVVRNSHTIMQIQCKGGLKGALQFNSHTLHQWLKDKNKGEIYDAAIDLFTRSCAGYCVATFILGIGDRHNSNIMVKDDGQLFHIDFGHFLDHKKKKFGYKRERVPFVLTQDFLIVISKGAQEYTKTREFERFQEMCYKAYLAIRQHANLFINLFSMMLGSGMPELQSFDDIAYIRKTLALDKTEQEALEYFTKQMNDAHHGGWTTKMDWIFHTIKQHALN
Sequence of PI3-Kα (P26450 whole entry partner, the tested form may be a part): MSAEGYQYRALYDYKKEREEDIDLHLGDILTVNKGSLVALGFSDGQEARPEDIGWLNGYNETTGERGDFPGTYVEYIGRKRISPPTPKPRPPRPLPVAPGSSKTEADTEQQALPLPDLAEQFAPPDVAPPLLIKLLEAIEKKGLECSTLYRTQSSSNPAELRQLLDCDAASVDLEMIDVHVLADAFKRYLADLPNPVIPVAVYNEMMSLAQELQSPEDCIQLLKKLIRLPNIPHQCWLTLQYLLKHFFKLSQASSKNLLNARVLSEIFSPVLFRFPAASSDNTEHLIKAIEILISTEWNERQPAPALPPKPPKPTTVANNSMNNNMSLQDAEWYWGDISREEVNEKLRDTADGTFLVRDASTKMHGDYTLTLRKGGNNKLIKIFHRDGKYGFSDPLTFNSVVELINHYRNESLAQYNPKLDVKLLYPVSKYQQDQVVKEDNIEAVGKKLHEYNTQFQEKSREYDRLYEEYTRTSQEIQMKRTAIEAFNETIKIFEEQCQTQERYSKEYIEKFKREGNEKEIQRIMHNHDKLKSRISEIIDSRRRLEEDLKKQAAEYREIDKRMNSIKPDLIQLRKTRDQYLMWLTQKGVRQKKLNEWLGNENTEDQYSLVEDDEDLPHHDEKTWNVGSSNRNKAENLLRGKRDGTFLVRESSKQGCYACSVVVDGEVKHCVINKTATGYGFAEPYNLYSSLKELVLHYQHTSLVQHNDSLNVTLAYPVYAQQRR

[1] = test system: PI3-K (phosphorylation of AKT at serine 473) in BT20 cells; assay: PI3-Kα cellular assay (phospho-AKT Ser473 ELISA in BT20 cells); conditions: Homo sapiens, BT-20, 1 h;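 also: lysates read by ELISA with TMB colour at 450 nm, cells given 0.5% DMSO vehicle serve as positive control and cell-free wells as negative control, duplicate wells per concentration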
mTOR = mTOR (Homo sapiens (Human), UniProt P42345); assay: biochemical
Sequence of mTOR (P42345 2156-2469): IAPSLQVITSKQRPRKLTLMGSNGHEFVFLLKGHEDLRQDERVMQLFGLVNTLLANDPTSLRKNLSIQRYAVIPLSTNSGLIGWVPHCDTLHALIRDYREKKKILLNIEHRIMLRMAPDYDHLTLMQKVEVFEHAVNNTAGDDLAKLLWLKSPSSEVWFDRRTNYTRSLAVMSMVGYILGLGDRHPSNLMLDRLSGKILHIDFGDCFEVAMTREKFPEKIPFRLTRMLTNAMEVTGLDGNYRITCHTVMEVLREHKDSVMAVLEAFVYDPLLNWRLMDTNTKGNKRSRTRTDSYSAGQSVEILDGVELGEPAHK

[2] = read-out: S473 pAKT 10% FBS IC50 (μM)
[3] = read-out: S473 pAKT 0.5% FBS IC50 (μM)

SMILES: CNC(=O)N1CCC(n2c(=O)n(C)c3cnc4ccc(-c5cnc(OC)nc5)nc4c32)CC1 [Compound 186, 4-[8-(2-methoxypyrimidin-5-yl)-3-methyl-2-oxo-2,3-dihydro-1H-imidazo[4,5-c][1,5]naphthyridin-1-yl]-N-methylpiperidine-1-carboxamide]
- Ki (PI3-Kα): 2.49 nM
- IC50 [1, 2]: 0.0681 µM
- Ki (mTOR): 3.06 nM

SMILES: Cn1c(=O)n(C2CCN(C(=O)OCc3ccccc3)CC2)c2c3nc(-c4cnc5ccccc5c4)ccc3ncc21 [Compound 116, benzyl4-(3-methyl-2-oxo-8-quinolin-3-yl-2,3-dihydro-1H-imidazo[4,5-c][1,5]naphthyridin-1-yl)piperidine-1-carboxylate]
- Ki (PI3-Kα): 2.91 nM
- IC50 [1, 3]: 0.0134 µM
- Ki (mTOR): 6.53 nM

SMILES: Cn1c(=O)n(-c2ccc(C(C)(C)C#N)cc2)c2c3nc(-c4cnc5ccccc5c4)ccc3ncc21 [Compound 102, 2-methyl-2-[4-(3-methyl-2-oxo-8-quinolin-3-yl-2,3-dihydro-1H-imidazo[4,5-c]-1,5-naphthyridin-1-yl)phenyl]propanenitrile]
- Ki (PI3-Kα): 0.76 nM
- IC50 [1, 3]: 0.00354 µM
- Ki (mTOR): 3.01 nM

SMILES: COc1ncc(-c2ccc3ncc4c(c3n2)n(C2CCN(C(=O)CO)CC2)c(=O)n4C)cn1 [Compound 189, 1-(1-glycoloylpiperidin-4-yl)-8-(2-methoxypyrimidin-5-yl)-3-methyl-1,3-dihydro-2H-imidazo[4,5-c][1,5]naphthyridin-2-one]
- Ki (PI3-Kα): 1.78 nM
- IC50 [1, 2]: 0.0272 µM
- Ki (mTOR): 1.95 nM

SMILES: Cn1c(=O)n([C@H]2CC[C@H](N)CC2)c2c3nc(-c4cnc5ccccc5c4)ccc3ncc21 [Compound 194, 1-(trans-4-aminocyclohexyl)-3-methyl-8-quinolin-3-yl-1,3-dihydro-2H-imidazo[4,5-c][1,5]naphthyridin-2-one]
- Ki (PI3-Kα): 2.3 nM
- IC50 [1, 3]: 0.0464 µM
- Ki (mTOR): 7.91 nM

SMILES: CN[C@H]1CC[C@H](n2c(=O)n(C)c3cnc4ccc(-c5cnc6ccccc6c5)nc4c32)CC1 [Compound 193, 3-methyl-1-[trans-4-(methylamino)cyclohexyl]-8-quinolin-3-yl-1,3-dihydro-2H-imidazo[4,5-c][1,5]naphthyridin-2-one]
- Ki (PI3-Kα): 1.61 nM
- IC50 [1, 3]: 0.0404 µM
- Ki (mTOR): 13.1 nM

SMILES: CC(=O)N1CCC(n2c(=O)n(C)c3cnc4ccc(-c5cnc6ccccc6c5)nc4c32)CC1 [Compound 120, 1-(1-acetylpiperidin-4-yl)-3-methyl-8-quinolin-3-yl-1,3-dihydro-2H-imidazo[4,5-c][1,5]naphthyridin-2-one]
- Ki (PI3-Kα): 0.98 nM
- IC50 [1, 3]: 0.00459 µM
- Ki (mTOR): 5.41 nM

SMILES: CC(=O)N1CCC(n2c(=O)n(C)c3cnc4ccc(-c5cccc6ncccc56)nc4c32)CC1 [Compound 249, 1-(1-acetylpiperidin-4-yl)-3-methyl-8-quinolin-5-yl-1,3-dihydro-2H-imidazo[4,5-c][1,5]naphthyridin-2-one]
- Ki (PI3-Kα): 4.51 nM
- IC50 [1, 2]: 0.194 µM
- Ki (mTOR): 442 nM

SMILES: CNC(=O)N1CCC(n2c(=O)n(C)c3cnc4ccc(-c5ccc(C)nc5)nc4c32)CC1 [Compound 181, N-methyl-4-[3-methyl-8-(6-methylpyridin-3-yl)-2-oxo-2,3-dihydro-1H-imidazo[4,5-c][1,5]naphthyridin-1-yl]piperidine-1-carboxamide]
- Ki (PI3-Kα): 3.27 nM
- IC50 [1, 2]: 0.0594 µM
- Ki (mTOR): 1.06 nM

SMILES: CC(C)(C#N)c1ccc(-n2c(=O)[nH]c3cnc4ccc(-c5cnc6ccccc6c5)nc4c32)cc1 [Compound 101, 2-methyl-2-[4-(2-oxo-8-quinolin-3-yl-2,3-dihydro-1H-imidazo[4,5-c]-1,5-naphthyridin-1-yl)phenyl]propanenitrile]
- Ki (PI3-Kα): 4.4 nM
- IC50 [1, 3]: 0.00647 µM
- Ki (mTOR): 3.63 nM

SMILES: Cc1ccc(-c2ccc3ncc4c(c3n2)n(C2CCNCC2)c(=O)n4C)cn1 [Compound 177, 3-methyl-8-(6-methyl-pyridin-3-yl)-1-piperidin-4-yl-1,3-dihydro-1,3,5,9-tetraaza-cyclopenta[a]naphthalen-2-one]
- Ki (PI3-Kα): 2.45 nM
- IC50 [1, 2]: 0.101 µM
- Ki (mTOR): 7.21 nM

SMILES: CN(C)c1ccc(-c2ccc3ncc4c(c3n2)n([C@H]2CC[C@H](O)CC2)c(=O)n4C)cn1 [Compound 175, 8-[6-(dimethylamino)pyridin-3-yl]-1-(trans-4-hydroxycyclohexyl)-3-methyl-1,3-dihydro-2H-imidazo[4,5-c][1,5]naphthyridin-2-one]
- Ki (PI3-Kα): 0.666 nM
- IC50 [1, 2]: 0.00526 µM
- Ki (mTOR): 1.8 nM

SMILES: Cn1c(=O)n([C@H]2CC[C@H](O)CC2)c2c3nc(-c4cnn(CCO)c4)ccc3ncc21 [Compound 164, 1-(trans-4-hydroxycyclohexyl)-8-[1-(2-hydroxyethyl)-1H-pyrazol-4-yl]-3-methyl-1,3-dihydro-2H-imidazo[4,5-c][1,5]naphthyridin-2-one]
- Ki (PI3-Kα): 16.2 nM
- IC50 [1, 2]: 0.448 µM
- Ki (mTOR): 14 nM

SMILES: COc1ncc(-c2ccc3ncc4c(c3n2)n(C2CCN(CC(N)=O)CC2)c(=O)n4C)cn1 [Compound 190, 2-{4-[8-(2-methoxypyrimidin-5-yl)-3-methyl-2-oxo-2,3-dihydro-1H-imidazo[4,5-c][1,5]naphthyridin-1-yl]piperidin-1-yl}acetamide]
- Ki (PI3-Kα): 4.96 nM
- IC50 [1, 2]: 0.0903 µM
- Ki (mTOR): 9.76 nM

SMILES: O=C(OCc1ccccc1)N1CCC(n2c(=O)[nH]c3cnc4ccc(-c5cnc6ccccc6c5)nc4c32)CC1 [Compound 115, benzyl4-(2-oxo-8-quinolin-3-yl-2,3-dihydro-1H-imidazo[4,5-c][1,5]naphthyridin-1-yl)piperidine-1-carboxylate]
- Ki (PI3-Kα): 7.77 nM
- IC50 [1, 3]: 0.0322 µM
- Ki (mTOR): 21.5 nM

SMILES: CN(C)C(=O)CN1CCC(n2c(=O)n(C)c3cnc4ccc(-c5cnn(C)c5)nc4c32)CC1 [Compound 212, N,N-dimethyl-2-{4-[3-methyl-8-(1-methyl-1H-pyrazol-4-yl)-2-oxo-2,3-dihydro-1H-imidazo[4,5-c][1,5]naphthyridin-1-yl]piperidin-1-yl}acetamide]
- Ki (PI3-Kα): 14.7 nM
- IC50 [1, 2]: 0.248 µM
- Ki (mTOR): 27.9 nM

SMILES: Cc1ccc(-c2ccc3ncc4c(c3n2)n(C2CCN(C(N)=O)CC2)c(=O)n4C)cn1 [Compound 167, 4-[3-methyl-8-(6-methylpyridin-3-yl)-2-oxo-2,3-dihydro-1H-imidazo[4,5-c][1,5]naphthyridin-1-yl]piperidine-1-carboxamide]
- Ki (PI3-Kα): 1.93 nM
- IC50 [1, 2]: 0.112 µM
- Ki (mTOR): 1.28 nM
